The values below are quoted from earlier work in patent publication US20210115268A1, “FUNCTIONALIZED QUATERNARY AMMONIUM HALIDES AND USE THEREOF” (Agency for Science, Technology and Research, priority 2015, published 2021).

Structures are written as SMILES.

For the data set the following is noted: glass, cotton, polyester fibers or polyurethane foams treated with the silane; after repeated washings.

`CCCCCCCCCCCCCCCCCC[N+](C)(C)CCC[Si](OC)(OC)OC.[Cl-]` [DC 5700, (MeO)3Si(CH2)3N^+Me2C18H37Cl]: the “algicidal and bactericidal properties, leaching” value was “showed algicidal and bactericidal properties that are maintained after repeated washings and no apparent leaching was observed”.
